≈ marks a conversion by molar mass, not a printed value.
Conditions: for solubility: 25 °C

| Compound | logP | solubility |
| --- | --- | --- |
| COc1c(Cl)c(Cl)c(Cl)c(Cl)c1OC | 4.86 | 5.76 µM (≈ 1.59 µg/mL) |
| COc1c(Cl)cccc1Cl | 3.14 | 791 µM (≈ 140 µg/mL) |
| COc1cc(Cl)c(Cl)c(Cl)c1OC | 4.01 | 42.6 µM (≈ 10.3 µg/mL) |
| COc1cccc(Cl)c1 |  | 1650 µM (≈ 235 µg/mL) |
| COc1cc(Cl)c(Cl)cc1OC | 3.11 | 348 µM (≈ 72 µg/mL) |
| COc1c(Cl)c(Cl)cc(Cl)c1Cl |  | 7.4 µM (≈ 1.82 µg/mL) |

Further lines, results first:

| logP | solubility | Compound |
| --- | --- | --- |
|  | 5.49 µM (≈ 1.35 µg/mL) | COc1cc(Cl)c(Cl)c(Cl)c1Cl |
|  | 51.1 µM (≈ 10.8 µg/mL) | COc1ccc(Cl)c(Cl)c1Cl |
| 3.24 | 491 µM (≈ 86.9 µg/mL) | COc1cccc(Cl)c1Cl |

Source: the OPERA property sets (Mansouri et al. 2018)
